{
  "source": "paper PMC9067983",
  "about": "“Identification of highly selective type II kinase inhibitors with chiral peptidomimetic tails” (Journal of Enzyme Inhibition and Medicinal Chemistry, 2022)",
  "assay_in_all_cases": "kinase selectivity profiling",
  "type_in_all_cases": "biochemical",
  "settings_in_all_cases": "10µM ATP, read-out: % inhibition (relative to DMSO)",
  "key": {"[1]": {"target": "T1, EPHA3 (Homo sapiens, UniProt P29320)", "T1 construct": "purchased Reaction Biology Corp", "experimental": "(§1) Full panel kinase profiling and kinase IC50 measurement were performed by using Reaction Biology Corp. (San Diego, USA)."}, "[2]": {"target": "T2, RSK3 (Homo sapiens, UniProt Q15349)", "T2 construct": "purchased Reaction Biology Corp", "T2 sequence (Q15349 whole entry)": "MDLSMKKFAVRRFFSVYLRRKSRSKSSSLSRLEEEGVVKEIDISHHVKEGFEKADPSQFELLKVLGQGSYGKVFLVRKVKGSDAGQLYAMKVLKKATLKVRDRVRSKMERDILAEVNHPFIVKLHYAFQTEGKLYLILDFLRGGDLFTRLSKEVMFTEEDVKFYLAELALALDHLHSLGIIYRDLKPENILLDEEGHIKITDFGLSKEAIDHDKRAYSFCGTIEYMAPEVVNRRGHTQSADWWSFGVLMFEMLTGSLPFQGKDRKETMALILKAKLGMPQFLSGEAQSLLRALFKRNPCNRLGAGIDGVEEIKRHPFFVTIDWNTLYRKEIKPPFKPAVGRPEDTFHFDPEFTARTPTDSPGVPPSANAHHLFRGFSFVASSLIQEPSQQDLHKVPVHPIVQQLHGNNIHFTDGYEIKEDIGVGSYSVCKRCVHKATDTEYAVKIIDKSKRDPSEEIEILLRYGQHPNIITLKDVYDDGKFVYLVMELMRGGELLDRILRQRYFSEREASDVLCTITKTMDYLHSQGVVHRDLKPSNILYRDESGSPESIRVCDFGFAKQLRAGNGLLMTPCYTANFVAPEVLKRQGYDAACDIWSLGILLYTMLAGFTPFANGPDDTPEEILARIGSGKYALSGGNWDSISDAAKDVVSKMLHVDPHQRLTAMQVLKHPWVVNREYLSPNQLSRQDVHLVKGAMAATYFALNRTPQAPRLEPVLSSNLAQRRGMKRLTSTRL", "experimental": "as §1"}, "[3]": {"target": "T3, ULK2 (Homo sapiens, UniProt Q8IYT8)", "T3 construct": "purchased Reaction Biology Corp", "experimental": "as §1"}, "[4]": {"target": "T4, MARK1 (Homo sapiens, UniProt Q9P0L2)", "T4 construct": "purchased Reaction Biology Corp", "experimental": "as §1"}, "[5]": {"target": "T5, PDGFRa (Homo sapiens, UniProt P16234)", "T5 construct": "purchased Reaction Biology Corp", "experimental": "as §1"}, "[6]": {"target": "T6, FES/FPS (Homo sapiens, UniProt P07332)", "T6 construct": "purchased Reaction Biology Corp", "experimental": "as §1"}, "[7]": {"target": "T7, CAMKK2 (Homo sapiens, UniProt Q96RR4)", "T7 construct": "purchased Reaction Biology Corp", "experimental": "as §1"}, "[8]": {"target": "T8, MST2/STK3 (Homo sapiens, UniProt Q13188)", "T8 construct": "purchased Reaction Biology Corp", "experimental": "as §1"}, "[9]": {"target": "T9, SGK1 (Homo sapiens, UniProt O00141)", "T9 construct": "purchased Reaction Biology Corp", "experimental": "as §1"}, "[10]": {"target": "T10, CDK8/cyclin C (Homo sapiens, UniProt P49336)", "T10 construct": "purchased Reaction Biology Corp", "experimental": "as §1"}, "[11]": {"target": "T11, ROCK1 (Homo sapiens, UniProt Q13464)", "T11 construct": "purchased Reaction Biology Corp", "experimental": "as §1"}, "[12]": {"target": "T12, JAK1 (Homo sapiens, UniProt P23458)", "T12 construct": "purchased Reaction Biology Corp", "T12 sequence (P23458 whole entry)": "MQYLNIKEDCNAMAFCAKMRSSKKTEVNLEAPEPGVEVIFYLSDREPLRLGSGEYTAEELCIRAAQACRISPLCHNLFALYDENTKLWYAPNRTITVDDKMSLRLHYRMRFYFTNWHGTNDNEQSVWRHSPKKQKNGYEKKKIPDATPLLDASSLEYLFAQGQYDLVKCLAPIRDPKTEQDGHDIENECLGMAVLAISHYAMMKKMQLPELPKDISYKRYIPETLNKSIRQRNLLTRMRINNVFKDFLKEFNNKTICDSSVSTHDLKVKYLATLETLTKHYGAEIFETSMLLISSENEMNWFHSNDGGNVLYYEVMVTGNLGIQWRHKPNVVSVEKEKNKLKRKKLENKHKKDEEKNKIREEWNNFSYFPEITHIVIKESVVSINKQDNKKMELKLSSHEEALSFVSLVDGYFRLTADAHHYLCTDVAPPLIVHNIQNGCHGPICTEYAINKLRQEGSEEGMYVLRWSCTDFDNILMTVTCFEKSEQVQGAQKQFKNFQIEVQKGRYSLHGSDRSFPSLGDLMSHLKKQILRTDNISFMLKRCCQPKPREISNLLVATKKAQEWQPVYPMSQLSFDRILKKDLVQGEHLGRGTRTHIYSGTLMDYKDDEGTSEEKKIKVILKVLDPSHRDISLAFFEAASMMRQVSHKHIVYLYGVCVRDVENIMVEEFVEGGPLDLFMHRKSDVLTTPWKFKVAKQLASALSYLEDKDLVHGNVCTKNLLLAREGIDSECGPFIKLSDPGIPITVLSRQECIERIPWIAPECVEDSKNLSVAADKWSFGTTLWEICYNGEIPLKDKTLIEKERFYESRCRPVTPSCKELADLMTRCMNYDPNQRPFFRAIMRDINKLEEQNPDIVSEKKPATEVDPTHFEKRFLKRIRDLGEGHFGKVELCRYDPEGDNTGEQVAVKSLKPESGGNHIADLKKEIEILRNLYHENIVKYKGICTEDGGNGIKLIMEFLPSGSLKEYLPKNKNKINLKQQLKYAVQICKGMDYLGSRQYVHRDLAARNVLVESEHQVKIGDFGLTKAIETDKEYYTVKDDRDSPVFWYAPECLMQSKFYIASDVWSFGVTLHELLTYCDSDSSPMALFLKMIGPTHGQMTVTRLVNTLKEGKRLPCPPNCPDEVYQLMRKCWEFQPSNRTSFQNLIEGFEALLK", "experimental": "as §1"}, "[13]": {"target": "T13, PKG1a (Homo sapiens, UniProt Q13976)", "T13 construct": "purchased Reaction Biology Corp", "experimental": "as §1"}, "[14]": {"target": "T14, RIPK3 (Homo sapiens, UniProt Q9Y572)", "T14 construct": "purchased Reaction Biology Corp", "experimental": "as §1"}, "[15]": {"target": "T15, MEKK6 (Homo sapiens, UniProt O95382)", "T15 construct": "purchased Reaction Biology Corp", "experimental": "as §1"}, "[16]": {"target": "T16, EPHA7 (Homo sapiens, UniProt Q15375)", "T16 construct": "purchased Reaction Biology Corp", "experimental": "as §1"}, "[17]": {"target": "T17, TESK1 (Homo sapiens, UniProt Q15569)", "T17 construct": "purchased Reaction Biology Corp", "experimental": "as §1"}, "[18]": {"target": "T18, ALK1/ACVRL1 (Homo sapiens, UniProt P37023)", "T18 construct": "purchased Reaction Biology Corp", "T18 sequence (P37023 22-503)": "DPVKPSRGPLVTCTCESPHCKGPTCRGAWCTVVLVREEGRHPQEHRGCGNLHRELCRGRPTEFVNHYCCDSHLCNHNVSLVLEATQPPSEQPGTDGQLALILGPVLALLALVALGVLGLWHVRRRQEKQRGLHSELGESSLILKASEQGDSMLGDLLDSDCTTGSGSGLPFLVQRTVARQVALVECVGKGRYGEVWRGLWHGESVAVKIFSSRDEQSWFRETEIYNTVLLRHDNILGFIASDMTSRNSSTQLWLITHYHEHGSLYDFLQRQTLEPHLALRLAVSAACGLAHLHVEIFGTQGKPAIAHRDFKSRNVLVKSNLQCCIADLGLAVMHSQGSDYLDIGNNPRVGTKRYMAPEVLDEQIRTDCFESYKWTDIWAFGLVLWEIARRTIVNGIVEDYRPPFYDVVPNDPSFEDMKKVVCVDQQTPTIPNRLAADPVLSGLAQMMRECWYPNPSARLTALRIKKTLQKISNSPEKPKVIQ", "experimental": "as §1"}, "[19]": {"target": "T19, GCK/MAP4K2 (Homo sapiens, UniProt Q12851)", "T19 construct": "purchased Reaction Biology Corp", "experimental": "as §1"}, "[20]": {"target": "T20, RIPK2 (Homo sapiens, UniProt O43353)", "T20 construct": "purchased Reaction Biology Corp", "experimental": "as §1"}, "[21]": {"target": "T21, YES/YES1 (Homo sapiens, UniProt P07947)", "T21 construct": "purchased Reaction Biology Corp", "experimental": "as §1"}, "[22]": {"target": "T22, TTBK2 (Homo sapiens, UniProt Q6IQ55)", "T22 construct": "purchased Reaction Biology Corp", "experimental": "as §1"}, "[23]": {"target": "T23, LYN B (Homo sapiens, UniProt P07948)", "T23 construct": "purchased Reaction Biology Corp", "experimental": "as §1"}, "[24]": {"target": "T24, HIPK1 (Homo sapiens, UniProt Q86Z02)", "T24 construct": "purchased Reaction Biology Corp", "experimental": "as §1"}, "[25]": {"target": "T25, c-Kit (Homo sapiens, UniProt P10721)", "T25 construct": "purchased Reaction Biology Corp", "experimental": "as §1"}, "[26]": {"target": "T26, MYO3A (Homo sapiens, UniProt Q8NEV4)", "T26 construct": "purchased Reaction Biology Corp", "experimental": "as §1"}, "[27]": {"target": "T27, DLK/MAP3K12 (Homo sapiens, UniProt Q12852)", "T27 construct": "purchased Reaction Biology Corp", "experimental": "as §1"}, "[28]": {"target": "T28, WEE1 (Homo sapiens, UniProt P30291)", "T28 construct": "purchased Reaction Biology Corp", "experimental": "as §1"}, "[29]": {"target": "T29, VRK1 (Homo sapiens, UniProt Q99986)", "T29 construct": "purchased Reaction Biology Corp", "experimental": "as §1"}, "[30]": {"target": "T30, AKT2 (Homo sapiens, UniProt P31751)", "T30 construct": "purchased Reaction Biology Corp", "experimental": "as §1"}, "[31]": {"target": "T31, HIPK3 (Homo sapiens, UniProt Q9H422)", "T31 construct": "purchased Reaction Biology Corp", "experimental": "as §1"}, "[32]": {"target": "T32, TLK1 (Homo sapiens, UniProt Q9UKI8)", "T32 construct": "purchased Reaction Biology Corp", "T32 sequence (Q9UKI8 whole entry)": "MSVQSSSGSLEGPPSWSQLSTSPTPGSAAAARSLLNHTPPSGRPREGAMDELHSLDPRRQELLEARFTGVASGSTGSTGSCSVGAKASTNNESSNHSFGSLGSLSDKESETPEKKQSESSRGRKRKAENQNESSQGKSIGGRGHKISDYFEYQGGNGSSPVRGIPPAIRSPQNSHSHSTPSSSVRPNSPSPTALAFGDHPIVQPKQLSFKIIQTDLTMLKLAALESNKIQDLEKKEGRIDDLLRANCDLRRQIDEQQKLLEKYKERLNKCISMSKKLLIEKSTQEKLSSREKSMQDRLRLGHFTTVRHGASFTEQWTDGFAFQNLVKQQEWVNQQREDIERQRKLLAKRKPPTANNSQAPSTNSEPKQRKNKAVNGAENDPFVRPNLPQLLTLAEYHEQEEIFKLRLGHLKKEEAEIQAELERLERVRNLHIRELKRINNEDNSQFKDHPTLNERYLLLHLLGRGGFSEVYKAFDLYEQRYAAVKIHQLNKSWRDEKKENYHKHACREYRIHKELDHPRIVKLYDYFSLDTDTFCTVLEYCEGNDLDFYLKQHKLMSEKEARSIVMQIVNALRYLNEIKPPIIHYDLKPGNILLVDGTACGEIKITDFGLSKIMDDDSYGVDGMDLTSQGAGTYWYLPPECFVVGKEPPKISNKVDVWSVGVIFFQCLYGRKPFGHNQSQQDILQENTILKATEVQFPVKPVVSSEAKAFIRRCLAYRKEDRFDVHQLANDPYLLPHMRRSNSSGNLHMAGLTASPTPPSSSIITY", "experimental": "as §1"}, "[33]": {"target": "T33, MKK4 (Homo sapiens, UniProt P45985)", "T33 construct": "purchased Reaction Biology Corp", "T33 sequence (P45985 whole entry)": "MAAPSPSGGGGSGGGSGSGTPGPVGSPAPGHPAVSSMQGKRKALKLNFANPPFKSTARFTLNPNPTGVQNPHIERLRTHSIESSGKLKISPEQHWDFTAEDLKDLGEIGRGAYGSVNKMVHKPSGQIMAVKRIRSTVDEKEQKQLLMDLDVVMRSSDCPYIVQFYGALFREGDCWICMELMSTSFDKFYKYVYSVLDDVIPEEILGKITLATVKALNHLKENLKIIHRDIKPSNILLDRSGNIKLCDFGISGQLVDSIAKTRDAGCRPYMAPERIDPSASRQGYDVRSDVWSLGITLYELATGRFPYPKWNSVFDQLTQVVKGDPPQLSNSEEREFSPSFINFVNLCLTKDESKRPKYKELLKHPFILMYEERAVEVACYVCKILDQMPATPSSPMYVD", "experimental": "as §1"}, "[34]": {"target": "T34, CDC7/DBF4 (Homo sapiens, UniProt O00311)", "T34 construct": "purchased Reaction Biology Corp", "experimental": "as §1"}, "[35]": {"target": "T35, ARAF (Homo sapiens, UniProt P10398)", "T35 construct": "purchased Reaction Biology Corp", "T35 sequence (P10398 whole entry)": "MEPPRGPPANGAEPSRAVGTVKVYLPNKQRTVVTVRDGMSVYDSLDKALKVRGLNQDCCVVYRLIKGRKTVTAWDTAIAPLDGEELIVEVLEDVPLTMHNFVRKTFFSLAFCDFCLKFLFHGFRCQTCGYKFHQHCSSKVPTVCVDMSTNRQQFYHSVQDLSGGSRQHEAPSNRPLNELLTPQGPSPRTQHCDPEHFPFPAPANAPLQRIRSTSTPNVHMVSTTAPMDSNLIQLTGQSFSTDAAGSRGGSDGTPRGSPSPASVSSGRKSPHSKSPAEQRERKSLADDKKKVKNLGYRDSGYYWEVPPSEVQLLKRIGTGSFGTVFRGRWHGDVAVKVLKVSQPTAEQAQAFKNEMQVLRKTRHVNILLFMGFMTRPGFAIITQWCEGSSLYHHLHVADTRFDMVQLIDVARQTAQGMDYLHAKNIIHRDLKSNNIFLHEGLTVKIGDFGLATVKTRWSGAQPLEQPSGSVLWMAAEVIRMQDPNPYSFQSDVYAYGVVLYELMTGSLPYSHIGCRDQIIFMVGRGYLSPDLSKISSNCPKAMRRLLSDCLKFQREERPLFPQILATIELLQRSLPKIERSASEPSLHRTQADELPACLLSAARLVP", "experimental": "as §1"}, "[36]": {"target": "T36, TGFBR2 (Homo sapiens, UniProt P37173)", "T36 construct": "purchased Reaction Biology Corp", "experimental": "as §1"}, "[37]": {"target": "T37, PAK4 (Homo sapiens, UniProt O96013)", "T37 construct": "purchased Reaction Biology Corp", "experimental": "as §1"}, "[38]": {"target": "T38, Fgr (Homo sapiens, UniProt P09769)", "T38 construct": "purchased Reaction Biology Corp", "experimental": "as §1"}, "[39]": {"target": "T39, AXL (Homo sapiens, UniProt P30530)", "T39 construct": "purchased Reaction Biology Corp", "T39 sequence (P30530 26-894)": "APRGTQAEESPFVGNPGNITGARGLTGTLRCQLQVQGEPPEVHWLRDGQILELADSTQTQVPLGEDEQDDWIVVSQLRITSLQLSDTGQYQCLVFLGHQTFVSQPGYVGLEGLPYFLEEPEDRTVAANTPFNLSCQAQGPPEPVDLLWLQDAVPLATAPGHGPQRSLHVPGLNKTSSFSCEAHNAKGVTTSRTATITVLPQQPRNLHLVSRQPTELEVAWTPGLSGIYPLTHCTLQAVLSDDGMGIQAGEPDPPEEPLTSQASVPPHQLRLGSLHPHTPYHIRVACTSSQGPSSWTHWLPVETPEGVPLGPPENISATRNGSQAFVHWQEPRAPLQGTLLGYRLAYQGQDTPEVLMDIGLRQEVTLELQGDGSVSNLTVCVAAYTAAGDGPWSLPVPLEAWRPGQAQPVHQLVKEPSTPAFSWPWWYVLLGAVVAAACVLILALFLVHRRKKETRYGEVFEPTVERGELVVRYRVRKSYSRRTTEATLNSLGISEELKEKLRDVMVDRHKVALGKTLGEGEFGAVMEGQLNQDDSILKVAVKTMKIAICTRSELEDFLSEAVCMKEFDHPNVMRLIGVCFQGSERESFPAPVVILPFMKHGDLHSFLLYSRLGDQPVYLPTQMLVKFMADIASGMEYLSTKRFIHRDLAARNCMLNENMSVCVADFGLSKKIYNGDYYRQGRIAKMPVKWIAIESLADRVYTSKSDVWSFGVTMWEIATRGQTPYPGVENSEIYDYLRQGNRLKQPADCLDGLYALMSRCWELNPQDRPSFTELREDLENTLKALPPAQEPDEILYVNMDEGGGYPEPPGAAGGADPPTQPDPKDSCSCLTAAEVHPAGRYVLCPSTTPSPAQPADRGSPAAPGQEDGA", "experimental": "as §1"}, "[40]": {"target": "T40, MARK3 (Homo sapiens, UniProt P27448)", "T40 construct": "purchased Reaction Biology Corp", "experimental": "as §1"}, "[41]": {"target": "T41, c-MER (Homo sapiens, UniProt Q12866)", "T41 construct": "purchased Reaction Biology Corp", "experimental": "as §1"}, "[42]": {"target": "T42, PKG1b (Homo sapiens, UniProt Q13976)", "T42 construct": "purchased Reaction Biology Corp", "experimental": "as §1"}, "[43]": {"target": "T43, SRMS (Homo sapiens, UniProt Q9H3Y6)", "T43 construct": "purchased Reaction Biology Corp", "experimental": "as §1"}},
  "note": "Where a SMILES comes first, the peptide text is derived from it. [ ]: non-standard residue; d: D form. The star is where a group is joined. X1 = Cc1ccc(Nc2ncc3c(n2)N(C)C(=O)N(c2cc(C(=O)*)ccc2C)C3)cn1; Aib = CC(C)(N)C(=O)O",
  "data": [
    {"smiles": "Cc1ccc(Nc2ncc3c(n2)N(C)C(=O)N(c2cc(C(=O)N[C@H](C(=O)N4CCC[C@H]4C(=O)NC(C)(C)C(=O)N[C@@H](CC(C)C)C(=O)N(C)C)C(C)C)ccc2C)C3)cn1", "note": "[7a, (S)-N-(1-(((S)-1-(dimethylamino)-4-methyl-1-oxopentan-2-yl)amino)-2-methyl-1-oxopropan-2-yl)-1-((4-methyl-3-(1-methyl-7-((6-methylpyridin-3-yl)amino)-2-oxo-1,4-dihydropyrimido[4,5-d]pyrimidin-3(2H)-yl)benzoyl)-L-valyl)pyrrolidine-2-carboxamide] (X1-VP[Aib]L-NMe2)", "values": [
      {"measurement": "inhibition at 1 µM", "setting": "[1]", "result": 25, "unit": "%"},
      {"measurement": "inhibition at 1 µM", "setting": "[2]", "result": 0, "unit": "%"},
      {"measurement": "inhibition at 1 µM", "setting": "[3]", "result": 5, "unit": "%"},
      {"measurement": "inhibition at 1 µM", "setting": "[4]", "result": 0, "unit": "%"},
      {"measurement": "inhibition at 1 µM", "setting": "[5]", "result": 31, "unit": "%"},
      {"measurement": "inhibition at 1 µM", "setting": "[6]", "result": 18, "unit": "%"},
      {"measurement": "inhibition at 1 µM", "setting": "[7]", "result": 10, "unit": "%"},
      {"measurement": "inhibition at 1 µM", "setting": "[8]", "result": 7, "unit": "%"},
      {"measurement": "inhibition at 1 µM", "setting": "[9]", "result": 0, "unit": "%"},
      {"measurement": "inhibition at 1 µM", "setting": "[10]", "result": 2, "unit": "%"},
      {"measurement": "inhibition at 1 µM", "setting": "[11]", "result": 13, "unit": "%"},
      {"measurement": "inhibition at 1 µM", "setting": "[12]", "result": 9, "unit": "%"},
      {"measurement": "inhibition at 1 µM", "setting": "[13]", "result": 0, "unit": "%"},
      {"measurement": "inhibition at 1 µM", "setting": "[14]", "result": 0, "unit": "%"},
      {"measurement": "inhibition at 1 µM", "setting": "[15]", "result": 0, "unit": "%"},
      {"measurement": "inhibition at 1 µM", "setting": "[16]", "result": 2, "unit": "%"},
      {"measurement": "inhibition at 1 µM", "setting": "[17]", "result": 0, "unit": "%"},
      {"measurement": "inhibition at 1 µM", "setting": "[18]", "result": 17, "unit": "%"},
      {"measurement": "inhibition at 1 µM", "setting": "[19]", "result": 13, "unit": "%"},
      {"measurement": "inhibition at 1 µM", "setting": "[20]", "result": 1, "unit": "%"},
      {"measurement": "inhibition at 1 µM", "setting": "[21]", "result": 62, "unit": "%"},
      {"measurement": "inhibition at 1 µM", "setting": "[22]", "result": 7, "unit": "%"},
      {"measurement": "inhibition at 1 µM", "setting": "[23]", "result": 34, "unit": "%"},
      {"measurement": "inhibition at 1 µM", "setting": "[24]", "result": 0, "unit": "%"},
      {"measurement": "inhibition at 1 µM", "setting": "[25]", "result": 27, "unit": "%"},
      {"measurement": "inhibition at 1 µM", "setting": "[26]", "result": 0, "unit": "%"},
      {"measurement": "inhibition at 1 µM", "setting": "[27]", "result": 0, "unit": "%"},
      {"measurement": "inhibition at 1 µM", "setting": "[28]", "result": 0, "unit": "%"},
      {"measurement": "inhibition at 1 µM", "setting": "[29]", "result": 0, "unit": "%"},
      {"measurement": "inhibition at 1 µM", "setting": "[30]", "result": 0, "unit": "%"},
      {"measurement": "inhibition at 1 µM", "setting": "[31]", "result": 0, "unit": "%"},
      {"measurement": "inhibition at 1 µM", "setting": "[32]", "result": 0, "unit": "%"},
      {"measurement": "inhibition at 1 µM", "setting": "[33]", "result": 2, "unit": "%"},
      {"measurement": "inhibition at 1 µM", "setting": "[34]", "result": 0, "unit": "%"},
      {"measurement": "inhibition at 1 µM", "setting": "[35]", "result": 34, "unit": "%"},
      {"measurement": "inhibition at 1 µM", "setting": "[36]", "result": 0, "unit": "%"},
      {"measurement": "inhibition at 1 µM", "setting": "[37]", "result": 0, "unit": "%"},
      {"measurement": "inhibition at 1 µM", "setting": "[38]", "result": 80, "unit": "%"},
      {"measurement": "inhibition at 1 µM", "setting": "[39]", "result": 0, "unit": "%"},
      {"measurement": "inhibition at 1 µM", "setting": "[40]", "result": 4, "unit": "%"},
      {"measurement": "inhibition at 1 µM", "setting": "[41]", "result": 1, "unit": "%"},
      {"measurement": "inhibition at 1 µM", "setting": "[42]", "result": 0, "unit": "%"},
      {"measurement": "inhibition at 1 µM", "setting": "[43]", "result": 4, "unit": "%"}
    ]}
  ]
}
